Assay results as given in US20250334558A1, “TOTAL HYDROGEN SULFIDE QUANTIFICATION” (The Cleveland Clinic Foundation, priority 2022, published 2025).
Residues, ends and D or L forms follow the SMILES beside them.

Tests used:
[1] = Long term (one year) stability study of H2S and thiols in human plasma samples; settings: n = 3
Method: (§1) Long-term stability of H2S and thiols in plasma samples was determined by “accelerated” stability. Samples were incubated in gas tight vials at 60° C. Each day, for five days (and after 1 year), an aliquot was cooled on ice, derivatized, and then analyzed by mass spectrometry. Stability was reported as the mean of the daily stability assay calculated across the five days. The long-term stability was calculated using the following formula: % Stability=(Ct/C0)×100; where C0 is the initial concentration of thiols and Ct is the concentration after each day of incubation. To determine whether the analyte was stable following derivatization, samples from 3 QC levels were kept at auto-sampler temperature and tested for five days. Stability was reported as the mean of the daily stability results for five days using the following formula: % Stability=(Ct/C0)×100; where C0 is the initial concentration of thiols and Ct is the concentration after each day of incubation.
Stability The stability of H2S and thiols in samples was determined through an accelerated stability study of pooled serum samples (Quality Control (QC) samples at 3 concentration levels) analyzed in triplicates at 60° C. for 5 days and compared with fresh matrix that was immediately processed. […] Extract stability was also tested by reanalyzing QC extracts after ≥3 days at 10° C. (auto-sampler temperature) and quantifying against a freshly analyzed sample.

[2] = pooled serum QC samples, 60° C., 5 days, vs fresh matrix
Method: as §1
Stability The stability of H2S and thiols in samples was determined through an accelerated stability study of pooled serum samples (Quality Control (QC) samples at 3 concentration levels) analyzed in triplicates at 60° C. for 5 days and compared with fresh matrix that was immediately processed. […] (auto-sampler temperature) and quantifying against a freshly analyzed sample.

[3] = after 5 freeze-thaw cycles, serum
Method: Stability of samples containing H2S and thiols For stability analysis a fresh serum sample was divided into 5 equal aliquots and frozen at −80° C. The aliquots were thawed and analyzed 24 hours later. This process was repeated five times. Percent recovery (stability) was calculated with the following formula: % Stability=100×Ct/C0; where C0 is the initial concentration (μM) of total H2S/thiols in the fresh serum sample and Ct is the concentration after each freeze-thaw cycle. The concentration mean from the 5 freeze-thaw cycles was calculated along with the standard deviation for each compound.

[4] = Storage stability of synthesized isotope labelled internal standard [^34S]Na2S and stock master solutions at −80° C.; settings: Storage at −80° C.
Method: The internal standard stock solution was prepared by weighing anhydrous [^34S]Na2S (in glovebox under nitrogen atmosphere) and dissolving it in ammonium bicarbonate buffer (pH 10).
IS working solutions were diluted 10-fold immediately before use.
The recovery of IS for H2S and other monitored thiols was examined in human plasma by comparing analyte peak areas in pooled human serum versus vehicle.

SMILES | Stability (%) = 100 × Ct/C0 ([1]; QC1, one year storage) [%] | Stability (%) = 100 × Ct/C0 ([1]; QC2, one year storage) [%] | Stability (%) = 100 × Ct/C0 ([1]; QC3, one year storage) [%] | further results
N[C@@H](CS)C(=O)NCC(=O)O [Cysteinylglycine] | 91.9 ± 6.5 | 99.0 ± 3.5 | 94.4 ± 4.9 | –
N[C@@H](CCC(=O)O)C(=O)N[C@@H](CS)C(=O)O [Glutamylcysteine] (H-Glu-Cys-OH) | 95.6 ± 1.3 | 96.2 ± 3.5 | 94.3 ± 6.9 | –
S [H2S, Hydrogen sulfide] | 98.4 ±2.2 | 97.4 ± 4.3 | 99.0 ± 3.9 | Sample stability (accelerated) [2]: 94.4%; Freeze-thaw stability [3]: 98.6%
N[C@@H](CCS)C(=O)O [Homocysteine] | 90.3 ± 5.6 | 101.3 ± 5.3 | 108.2 ± 6.9 | –
[Na+].[Na+].[S-2] [[^34S]Na2S, ^34S isotope-labeled sodium sulfide] | – | – | – | % of peak area, storage stability ([4]; 1 Week): 100.0 ± 9.7%; % of peak area, storage stability ([4]; 2 Week): 101.3 ± 8.5%; % of peak area, storage stability ([4]; 3 Week): 97.3 ± 14.3%; % of peak area, storage stability ([4]; 4 Week): 101.1 ± 8.1%; % of peak area, storage stability ([4]; 5 Week): 96.1 ± 4.5%; % of peak area, storage stability ([4]; 6 Week): 101.1 ± 8.1%; % of peak area, storage stability ([4]; 7 Week): 103.7 ± 12.3%; % of peak area, storage stability ([4]; 8 Week): 98.8 ± 19.9%

Further lines, with some results ahead:

Stability (%) = 100 × Ct/C0 ([1]; QC1, one year storage) [%] | Stability (%) = 100 × Ct/C0 ([1]; QC2, one year storage) [%] | Stability (%) = 100 × Ct/C0 ([1]; QC3, one year storage) [%] | SMILES | further results
96.9 ± 6.0 | 96.6 ± 3.2 | 100.5 ± 1.1 | N[C@@H](CS)C(=O)O [Cysteine] | –
82.1 ± 4.9 | 95.8 ± 5.5 | 99.0 ± 6.1 | N[C@@H](CCC(=O)N[C@@H](CS)C(=O)NCC(=O)O)C(=O)O [Glutathione] | –
